Assay results taken from PubChem BioAssay AID1259408 (Genetic Toxicology Data Bank (GENE-TOX), 2018).
Calls of active or inactive are those of the source. The rule behind the calls is not given here.

Tested on: GENE-TOX genotoxicity assays, various organisms and cells
Assay: GENE-TOX mutagenicity studies
Settings: for call: Assay Type: In vivo carcinogenicity studies
[1] = Species/Cell Type: Salmonella typhimurium (one or more of the five standard strains: TA98, TA100, TA1535, TA1537, and TA1538), Assay Type: Histidine reverse gene mutation, Ames assay, Assay Code: SALT, Evaluation Type: Evaluation A (Pre-1980)
[2] = Species/Cell Type: Salmonella typhimurium (one or more of the five standard strains: TA98, TA100, TA1535, TA1537, and TA1538), Assay Type: Histidine reverse gene mutation, Ames assay, Assay Code: SAL+, Evaluation Type: Evaluation A (Pre-1980)
[3] = Species/Cell Type: Human lymphocytes, Assay Type: Sister-chromatid exchange (SCE) in vitro, Assay Code: SCLT, Evaluation Type: Evaluation B (Post-1980)
[4] = Species/Cell Type: Human, Assay Type: Sister-chromatid exchange (SCE) in vitro, Assay Code: SC1T, Evaluation Type: Evaluation B (Post-1980)
[5] = Species/Cell Type: Nonhuman, Assay Type: Sister-chromatid exchange (SCE) in vitro, Assay Code: SC2+D, Dose Response: With dose response, Evaluation Type: Evaluation B (Post-1980)
[6] = Species/Cell Type: Human diploid fibroblasts, Assay Type: Unscheduled DNA synthesis (UDS) in vitro, DNA effects, Assay Code: UDH-, Evaluation Type: Evaluation A (Pre-1980)
[7] = Species/Cell Type: Nonhuman, Assay Type: Sister-chromatid exchange (SCE) in vitro, Assay Code: SC2+D, Dose Response: With dose response, Evaluation Type: Evaluation A (Pre-1980)
[8] = Species/Cell Type: Saccharomyces cerevisiae, Assay Type: Mitotic recombination or gene conversion, Assay Code: YEH-, Evaluation Type: Evaluation A (Pre-1980)
[9] = Species/Cell Type: Human lymphocytes, Assay Type: Sister-chromatid exchange (SCE) in vitro, Assay Code: SCL+, Evaluation Type: Evaluation B (Post-1980)
[10] = Species/Cell Type: Human, Assay Type: Sister-chromatid exchange (SCE) in vitro, Assay Code: SC1+, Evaluation Type: Evaluation B (Post-1980)
[11] = Species/Cell Type: Mammalian polychromatic erythrocytes, Assay Type: Micronucleus test, chromosome aberrations, Assay Code: MNT+, Evaluation Type: Evaluation A (Pre-1980)
[12] = Species/Cell Type: Mouse, Sex: Male, Assay Type: Sperm morphology, Assay Code: SPI+, Evaluation Type: Evaluation A (Pre-1980)
[13] = Species/Cell Type: Syrian hamster embryo (SHE) cells, Assay Type: Cell transformation, clonal assay, Assay Code: CTC+, Evaluation Type: Evaluation A (Pre-1980)
[14] = Species/Cell Type: Mammalian polychromatic erythrocytes, Assay Type: Micronucleus test, chromosome aberrations, Assay Code: MNT+, Evaluation Type: Evaluation B (Post-1980)
[15] = Species/Cell Type: Chinese hamster lung (V79) cells, Assay Type: Forward gene mutation at the HPRT or ouabain locus, Assay Code: V79+, Evaluation Type: Evaluation A (Pre-1980)

c1ccc2c(c1)Nc1ccccc1S2
mutagenic call (Species/Cell Type: Syrian hamster embryo (SA7/SHE) cells, Assay Type: Cell transformation, viral enhanced, Assay Code: CT7+, Evaluation Type: Evaluation A (Pre-1980)): active; positive

Nc1ccc2ccccc2c1N=Nc1ccccc1
mutagenic call [1]: no conclusion

CC(=O)ON(C)c1ccc(N=Nc2ccccc2)cc1
mutagenic call [2]: active; positive

Clc1ccc(COC(Cn2ccnc2)c2ccc(Cl)cc2Cl)cc1 (centres undefined)
mutagenic call (Species/Cell Type: Aspergillus nidulans, Assay Type: Aneuploidy, chromosome aberrations, Assay Code: ASN+, Evaluation Type: Evaluation A (Pre-1980)): active; positive

Nc1ccn([C@H]2C[C@H](O)[C@@H](CO)O2)c(=O)n1
mutagenic call (Species/Cell Type: Chinese hamster lung (V79) cells, Assay Type: Forward gene mutation at the HPRT or ouabain locus, Assay Code: V79-, Evaluation Type: Evaluation A (Pre-1980)): inactive; negative
mutagenic call (Species/Cell Type: Glycine max (soybean), Assay Type: Gene mutation, Assay Code: GLM-, Evaluation Type: Evaluation A (Pre-1980)): inactive; negative
mutagenic call (Species/Cell Type: Human lymphocytes, Assay Type: Sister-chromatid exchange (SCE) in vitro, Assay Code: SCLT, Evaluation Type: Evaluation A (Pre-1980)): no conclusion
mutagenic call (Species/Cell Type: Human, Assay Type: Sister-chromatid exchange (SCE) in vitro, Assay Code: SC1T, Evaluation Type: Evaluation A (Pre-1980)): no conclusion
mutagenic call (Species/Cell Type: Nonhuman, Assay Type: Sister-chromatid exchange (SCE) in vitro, Assay Code: SC2T, Evaluation Type: Evaluation B (Post-1980)): no conclusion

CCCCOc1ccc(CC(=O)NO)cc1
mutagenic call [3]: no conclusion
mutagenic call [4]: no conclusion
mutagenic call (Species/Cell Type: Nonhuman, Assay Type: Sister-chromatid exchange (SCE) in vitro, Assay Code: SC2+, Evaluation Type: Evaluation B (Post-1980)): active; positive
mutagenic call [1]: no conclusion

C=CN(CC)N=O
mutagenic call (Species/Cell Type: Arabidopsis species, Assay Type: Gene mutation, Assay Code: ARM+D, Dose Response: With dose response, Evaluation Type: Evaluation A (Pre-1980)): active; positive

CCOc1ccc(CC(=O)NN)cc1CN(CC)CC
mutagenic call (Species/Cell Type: Saccharomyces cerevisiae, Assay Type: Reverse gene mutation, Assay Code: YERT, Evaluation Type: Evaluation A (Pre-1980)): no conclusion

N[C@@H](CS)C(=O)O
mutagenic call (Species/Cell Type: Allium cepa, Assay Type: Chromosome aberrations, Assay Code: ALC-, Evaluation Type: Evaluation A (Pre-1980)): inactive; negative
mutagenic call [3]: no conclusion
mutagenic call [4]: no conclusion
mutagenic call [5]: active; positive

O=c1[nH]c(=O)n([C@H]2C[C@H](O)[C@@H](CO)O2)cc1Cl
mutagenic call (Species/Cell Type: Chinese hamster ovary (CHO) cells, Assay Type: Forward gene mutation at the HPRT locus, Assay Code: CHO+, Evaluation Type: Evaluation B (Post-1980)): active; positive
mutagenic call [5]: active; positive

c1ccc(-c2ccccc2)cc1
mutagenic call [6]: inactive; negative
mutagenic call [7]: active; positive
mutagenic call (Species/Cell Type: Rat primary hepatocytes, Assay Type: Unscheduled DNA synthesis (UDS) in vitro, DNA effects, Assay Code: UDP-, Evaluation Type: Evaluation A (Pre-1980)): inactive; negative
mutagenic call [8]: inactive; negative

CCSCC[C@H](N)C(=O)O
mutagenic call (Species/Cell Type: Escherichia coli polA (W3110 vs P3478), Assay Type: Rec-assay, DNA effects (bacterial DNA repair), Assay Code: RE2T, Evaluation Type: Evaluation A (Pre-1980)): no conclusion
mutagenic call (Species/Cell Type: Escherichia coli polA (W3119 vs P3478), Assay Type: Rec-assay, DNA effects (bacterial DNA repair), Assay Code: RE1T, Evaluation Type: Evaluation A (Pre-1980)): no conclusion
mutagenic call [6]: inactive; negative
mutagenic call [9]: active; positive
mutagenic call [10]: active; positive
mutagenic call [11]: active; positive
mutagenic call [12]: active; positive
mutagenic call [8]: inactive; negative
mutagenic call (Species/Cell Type: Salmonella typhimurium (one or more of the five standard strains: TA98, TA100, TA1535, TA1537, and TA1538), Assay Type: Histidine reverse gene mutation, Ames assay, Assay Code: SAL-, Evaluation Type: Evaluation A (Pre-1980)): inactive; negative
mutagenic call (Species/Cell Type: Salmonella typhimurium, Assay Type: Forward and reverse gene mutation, host-mediated assay, Assay Code: HMA-, Evaluation Type: Evaluation A (Pre-1980)): inactive; negative
mutagenic call [13]: active; positive

CCOC(=O)N(C)C(=O)CSP(=S)(OCC)OCC
mutagenic call (Species/Cell Type: Bacillus subtilis (H17 vs M45), Assay Type: Rec-assay, spot test, DNA effects (bacterial DNA repair), Assay Code: REWT, Evaluation Type: Evaluation A (Pre-1980)): no conclusion

Nc1ccc(S(=O)(=O)O)c2ccccc12
mutagenic call [1]: no conclusion

CC[C@]1(O)C[C@@H]2CN(CCc3c([nH]c4ccccc34)[C@@](C(=O)OC)(c3cc4c(cc3OC)N(C)[C@H]3[C@@](O)(C(=O)OC)[C@H](OC(C)=O)[C@]5(CC)C=CCN6CC[C@]43[C@@H]65)C2)C1
mutagenic call [11]: active; positive
mutagenic call [14]: active; positive
mutagenic call [12]: active; positive
mutagenic call (Species/Cell Type: Neurospora crassa, Assay Type: Aneuploidy, chromosome aberrations, Assay Code: NEN-, Evaluation Type: Evaluation A (Pre-1980)): inactive; negative

CC=Cc1ccccc1O
mutagenic call (Species/Cell Type: Human lymphocytes, Assay Type: Sister-chromatid exchange (SCE) in vitro, Assay Code: SCL+D, Dose Response: With dose response, Evaluation Type: Evaluation B (Post-1980)): active; positive
mutagenic call (Species/Cell Type: Human, Assay Type: Sister-chromatid exchange (SCE) in vitro, Assay Code: SC1+D, Dose Response: With dose response, Evaluation Type: Evaluation B (Post-1980)): active; positive

[CH3][Hg][Cl]
mutagenic call (Species/Cell Type: Bacillus subtilis (H17 vs M45), Assay Type: Rec-assay, spot test, DNA effects (bacterial DNA repair), Assay Code: REW+, Evaluation Type: Evaluation A (Pre-1980)): active; positive
mutagenic call [9]: active; positive
mutagenic call [10]: active; positive
mutagenic call (Species/Cell Type: Nonhuman, Assay Type: Sister-chromatid exchange (SCE) in vivo, Assay Code: SC3T, Evaluation Type: Evaluation B (Post-1980)): no conclusion
mutagenic call (Species/Cell Type: Rodents, Sex: Male, Assay Type: Dominant lethal test, Assay Code: DLT-, Evaluation Type: Evaluation A (Pre-1980)): inactive; negative

ClC(Cl)=C(c1ccc(Cl)cc1)c1ccccc1Cl
mutagenic call (Species/Cell Type: Nonhuman, Assay Type: Chromosome aberrations in vitro, Assay Code: CY&-, Evaluation Type: Evaluation A (Pre-1980)): inactive; negative

CC1OC1C (centres undefined)
mutagenic call (Species/Cell Type: Neurospora crassa, Assay Type: Reverse gene mutation, Assay Code: NER+, Evaluation Type: Evaluation A (Pre-1980)): active; positive

O=C1C=C(N2CC2)C(=O)C2=C1CCCC2
mutagenic call (Species/Cell Type: Drosophila melanogaster, Assay Type: Sex-linked recessive lethal gene mutation, Assay Code: SRL+, Evaluation Type: Evaluation A (Pre-1980)): active; positive

Cc1c2c(cc3c1ccc1ccccc13)C=C[C@@H](O)[C@@H]2O
mutagenic call [15]: active; positive
mutagenic call (Species/Cell Type: Mouse prostate cells, Assay Type: Cell transformation, Assay Code: CTM+, Evaluation Type: Evaluation A (Pre-1980)): active; positive
call (Species/Cell Type: Nonhuman, Assay Code: CCGT, Evaluation Type: Evaluation A (Pre-1980)): no conclusion
mutagenic call [7]: active; positive

CCOC(=O)N(CCO)N=O
mutagenic call [2]: active; positive

CC(C)CCC[C@@H](C)[C@H]1CC[C@H]2[C@@H]3C[C@@H]4O[C@@]45C[C@@H](O)CC[C@]5(C)[C@H]3CC[C@]12C
mutagenic call [13]: active; positive

CC(=O)c1ccc([N+](=O)[O-])[nH]1
mutagenic call [2]: active; positive

C#CC(C)N(C)C(=O)Nc1ccc(Cl)cc1 (centres undefined)
mutagenic call (Species/Cell Type: Saccharomyces cerevisiae, Assay Type: Mitotic recombination or gene conversion, Assay Code: YEC-, Evaluation Type: Evaluation A (Pre-1980)): inactive; negative

CC[n+]1c(-c2ccccc2)c2cc(N=[N+]=[N-])ccc2c2ccc(N)cc21
mutagenic call [1]: no conclusion

OCCN1CN(CCO)CN(CCO)C1
mutagenic call (Species/Cell Type: Mammalian polychromatic erythrocytes, Assay Type: Micronucleus test, chromosome aberrations, Assay Code: MNTT, Evaluation Type: Evaluation A (Pre-1980)): no conclusion

Cc1[nH]cnc1CSCCN(N=O)C(=NC#N)N(C)N=O
mutagenic call [5]: active; positive

Cc1c2ccccc2c(CO)c2c3c(ccc12)[C@@H](O)[C@H](O)C=C3
mutagenic call [15]: active; positive
call (Species/Cell Type: Nonhuman, Assay Code: CCG+L, Evaluation Type: Evaluation A (Pre-1980)): active; positive

CN1CCN(CCCN2c3ccccc3Sc3ccc(C(F)(F)F)cc32)CC1
mutagenic call (Species/Cell Type: Hordeum vulgare (barley), Assay Type: Chromosome aberrations, Assay Code: HOC+, Evaluation Type: Evaluation A (Pre-1980)): active; positive
mutagenic call [14]: active; positive

CC#CC(OC(=O)NC1CCCCC1)(c1ccccc1)c1ccccc1
mutagenic call [2]: active; positive

C[C@]12CCC[C@H](O1)c1c(cc3c(c1O)C(=O)c1c(O)cc(O)cc1C3=O)O2
mutagenic call [1]: no conclusion
